Reference: article PMC12860872, “Preclinical evaluation of DOTAGA.Glu.(FAPI)2 and DO3A.Glu.(FAPI)2 as theranostics with human dosimetry extrapolation to lutetium-177 and terbium-161 analogs” (European Journal of Nuclear Medicine and Molecular Imaging, 2025)
Values joined by “and” are separate entries in the source; they are usually repeats but may differ in a detail not shown here. Identical values can stand only once.

Columns and labels:
[1] = tested on: PC3-mice; experiment: Biodistribution in PC3-mice incl. blocking; assay type: in vivo, mouse; settings: PC3-mice
Description: Male athymic Balb/C nude mice (6 weeks/20–25 g) were implanted with PC3 cells (3.5 × 10^6/100 µL PBS) into their right shoulder to develop tumors. The animals were used for biodistribution and PET/SPECT/CT imaging studies, once tumors reached 250–300 mm^3.
All mice were euthanized with intraperitoneal injection of pentobarbital (150 mg/kg), and selected organs were dissected, weighed, and measured for radioactivity using a gamma-counter. Results are expressed as % injected activity per gram tissue (% I.A./g), presented as mean ± SD (n = 3–4).

[2] = molecular target: T1, FAP (Homo sapiens, UniProt Q12884); experiment: Saturation binding on FAP+ CAFs; settings: listed as 68/natGa-DOTAGA.Glu.(FAPI)2
T1 construct: the CAF cells overexpressing FAP were seeded at a density of 0.8-1 million cells per well; host or cells: hTERT PF179T prostate cancer-associated fibroblasts
T1 sequence (Q12884 1-760): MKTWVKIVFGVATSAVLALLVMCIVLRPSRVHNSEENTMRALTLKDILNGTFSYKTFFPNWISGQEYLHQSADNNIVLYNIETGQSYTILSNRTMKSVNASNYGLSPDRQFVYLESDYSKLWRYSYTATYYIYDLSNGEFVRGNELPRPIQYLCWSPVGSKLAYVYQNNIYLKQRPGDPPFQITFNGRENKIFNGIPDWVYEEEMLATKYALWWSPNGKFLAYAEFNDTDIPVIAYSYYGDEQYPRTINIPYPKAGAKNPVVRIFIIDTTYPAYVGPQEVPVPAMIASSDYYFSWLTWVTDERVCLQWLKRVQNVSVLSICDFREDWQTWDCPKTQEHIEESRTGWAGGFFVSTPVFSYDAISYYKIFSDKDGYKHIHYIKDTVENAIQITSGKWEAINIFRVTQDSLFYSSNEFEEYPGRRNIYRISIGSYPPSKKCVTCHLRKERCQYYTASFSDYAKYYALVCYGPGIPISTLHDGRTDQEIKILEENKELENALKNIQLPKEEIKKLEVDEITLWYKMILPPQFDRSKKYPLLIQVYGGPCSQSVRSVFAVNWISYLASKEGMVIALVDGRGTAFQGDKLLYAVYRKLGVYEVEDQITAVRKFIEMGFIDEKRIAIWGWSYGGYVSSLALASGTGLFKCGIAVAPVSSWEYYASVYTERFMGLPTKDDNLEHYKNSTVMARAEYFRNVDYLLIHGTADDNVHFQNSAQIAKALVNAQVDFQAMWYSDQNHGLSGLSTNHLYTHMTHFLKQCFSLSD
Description: For receptor saturation studies, FAP^+ CAFs were incubated with 0.1 to 10 nM of the radioligands. For internalization studies, approximately 2.5 pmol of the radioligands were added to CAFs followed by incubation for 15, 30, 60, 90, 120, 180 and 240 min for the ^68Ga-labeled or 30, 60, 120, 240 and 360 min for the ^177Lu-labeled radioligands at 37 °C, 5% CO2. For the externalization studies, approximately 2.5 pmol of the ^177Lu-labeled radioligands were added to CAFs followed by incubation for 2 h at 37 °C, 5% CO2. The amount of externalized activity was measured at 0, 10, 20, 30, 60, 120, 240, and 1440 min (Supplemental Data).
For receptor saturation analysis, the CAF cells overexpressing FAP were seeded at a density of 0.8-1 million cells per well in 6-well plates, pre-coated with BME (Cultrex Reduced Growth Factor Basement Membrane Extract, RGF BME, R&D System, Minneapolis, USA) to enhance cell attachment. The cells were incubated overnight with medium (EMEM supplemented and containing 10% FBS, 100 U/mL penicillin and 100 μg/mL streptomycin). The next day, the medium was removed and the cells were incubated for 30 minutes at 37 °C, with 0.8 mL of fresh medium. Afterwards, the plates were placed on ice for 30 minutes followed by incubation with increasing concentrations of ^68/natGa- and ^177/natLu-labelled DOTAGA.Glu.(FAPI)2 and DO3A.Glu.( FAPI)2 (0.1-10 nM final concentration in the wells). After the addition of the radioligands, the cells were incubated for 120 minutes at 4 °C. Non-specific binding was determined in the presence of UAMC1110 at a final concentration of 1 μM. After the completion of the incubation, the cells were washed twice with ice-cold PBS, followed by solubilization with 1 M NaOH. The cell-associated radioactivity was measured using a gamma-counter. Specific binding was plotted against the total molar concentration of the added radiotracer. The Kd values and the concentration of the radioligand required to saturate the receptors (Bmax) were determined by nonlinear regression using GraphPad (Prism 8 Graph Pad Software, San Diego, CA). For all the cell studies the values are normalized for 1x10^6 cells per well and all data are from two independent experiments with triplicates in each experiment.

[3] = Blocking 1h (20 nmol unlabeled precursor)

Uptake in Adrenal ([1]; 1 h p.i.): 3.6±0.6 %I.A./g | Uptake in Blood ([1]; 1 h p.i.): 3.5 ± 0.2 %I.A./g | Uptake in Bone ([1]; 1 h p.i.): 4.9±0.8 %I.A./g | Uptake in Gallbladder ([1]; 1 h p.i.): 3.2±0.6 %I.A./g | Uptake in Heart ([1]; 1 h p.i.): 1.6±0.2 %I.A./g | Uptake in Intestine ([1]; 1 h p.i.): 1.4±0.2 %I.A./g | Uptake in Kidney ([1]; 1 h p.i.): 8.3±0.7 %I.A./g | Uptake in Liver ([1]; 1 h p.i.): 3±0.4 %I.A./g | Uptake in Lung ([1]; 1 h p.i.): 3.7±0.6 %I.A./g | Uptake in Muscle ([1]; 1 h p.i.): 1.9±0.2 %I.A./g | Uptake in Pancreas ([1]; 1 h p.i.): 2.5±0.2 %I.A./g | Uptake in Salivary glands ([1]; 1 h p.i.): 8.2±0.5 %I.A./g | Uptake in Spleen ([1]; 1 h p.i.): 1.6±0.01 %I.A./g | Uptake in Stomach ([1]; 1 h p.i.): 1.3±0.2 %I.A./g | Uptake in Tumor ([1]; 1 h p.i.): 18.2 ± 2.3 %I.A./g and 18.2±3.8 %I.A./g | Uptake in Adrenal ([1]; 2 h p.i.): 4.2±0.2 %I.A./g | Uptake in Blood ([1]; 2 h p.i.): 2.6±0.1 %I.A./g | Uptake in Bone ([1]; 2 h p.i.): 6.4±1.2 %I.A./g | Uptake in Gallbladder ([1]; 2 h p.i.): 2.3±0.4 %I.A./g | Uptake in Heart ([1]; 2 h p.i.): 1±0.01 %I.A./g | Uptake in Intestine ([1]; 2 h p.i.): 1±0.03 %I.A./g | Uptake in Kidney ([1]; 2 h p.i.): 4.8±0.5 %I.A./g | Uptake in Liver ([1]; 2 h p.i.): 1.4±0.04 %I.A./g | Uptake in Lung ([1]; 2 h p.i.): 1.7±0.2 %I.A./g | Uptake in Muscle ([1]; 2 h p.i.): 1.7±0.3 %I.A./g | Uptake in Pancreas ([1]; 2 h p.i.): 2.3±0.1 %I.A./g | Uptake in Salivary glands ([1]; 2 h p.i.): 6.5±1.1 %I.A./g | Uptake in Spleen ([1]; 2 h p.i.): 1±0.1 %I.A./g | Uptake in Stomach ([1]; 2 h p.i.): 0.9±0.04 %I.A./g | Uptake in Tumor ([1]; 2 h p.i.): 17.8 ± 0.5 %I.A./g | Uptake in Adrenal ([1]; 3 h p.i.): 3.9±2 %I.A./g | Uptake in Blood ([1]; 3 h p.i.): 2.5 ± 0.1 %I.A./g | Uptake in Bone ([1]; 3 h p.i.): 6.7±0.1 %I.A./g | Uptake in Gallbladder ([1]; 3 h p.i.): 2.6±1.1 %I.A./g | Uptake in Heart ([1]; 3 h p.i.): 1±0.2 %I.A./g | Uptake in Intestine ([1]; 3 h p.i.): 1.1±0.1 %I.A./g | Uptake in Kidney ([1]; 3 h p.i.): 4.4±0.4 %I.A./g | Uptake in Liver ([1]; 3 h p.i.): 1.6±0.2 %I.A./g | Uptake in Lung ([1]; 3 h p.i.): 1.4±0.1 %I.A./g | Uptake in Muscle ([1]; 3 h p.i.): 1.6±0.2 %I.A./g | Uptake in Pancreas ([1]; 3 h p.i.): 2±0.1 %I.A./g | Uptake in Salivary glands ([1]; 3 h p.i.): 6±0.1 %I.A./g | Uptake in Spleen ([1]; 3 h p.i.): 1.1±0.2 %I.A./g | Uptake in Stomach ([1]; 3 h p.i.): 1±0.1 %I.A./g | Uptake in Tumor ([1]; 3 h p.i.): 18.4 ± 2.2 %I.A./g and 18.4±2.1 %I.A./g | Uptake in Adrenal [1, 3]: 0.7±0.1 %I.A./g | Uptake in Blood [1, 3]: 1.7±0.5 %I.A./g | Uptake in Bone [1, 3]: 0.3±0.2 %I.A./g | Uptake in Gallbladder [1, 3]: 5.5±0.6 %I.A./g | Uptake in Heart [1, 3]: 0.6±0.1 %I.A./g | Uptake in Intestine [1, 3]: 0.6±0.3 %I.A./g | Uptake in Kidney [1, 3]: 5.6±1.8 %I.A./g | Uptake in Liver [1, 3]: 0.6±0.2 %I.A./g | Uptake in Lung [1, 3]: 1.3±0.5 %I.A./g | Uptake in Muscle [1, 3]: 0.2±0.1 %I.A./g | Uptake in Pancreas [1, 3]: 0.3±0.1 %I.A./g | Uptake in Salivary glands [1, 3]: 0.7±0.1 %I.A./g | Uptake in Spleen [1, 3]: 0.5±0.1 %I.A./g | Uptake in Stomach [1, 3]: 0.5±0.1 %I.A./g | Uptake in Tumor [1, 3]: 1.4±0.5 %I.A./g | tumor uptake ([1]; sustained up to 3 h p.i.): 18–19 %I.A./g | Kd ([2]; 0.1 to 10 nM radioligand): 0.8 nM and 0.77 nM | Bmax [2]: 0.7 ± 0.04 nM and 0.67 ± 0.04 nM
SMILES: N#C[C@@H]1CC(F)(F)CN1C(=O)CNC(=O)c1ccnc2ccc(OCCCCNC(=O)CC[C@H](NC(=O)CCC(C(=O)O)N3CCN(CC(=O)[O-])CCN(CC(=O)[O-])CCN(CC(=O)[O-])CC3)C(=O)NCCCCOc3ccc4nccc(C(=O)NCC(=O)N5CC(F)(F)C[C@H]5C#N)c4c3)cc12.[68Ga+3] (stereo partly drawn) [[^68Ga]Ga-DOTAGA.Glu.(FAPI)2]
